Experimental data taken from patent US20170107503A1, “NOVEL METHODS, POLYPEPTIDES AND USES THEREOF” (priority 2014, published 2017).

Tests used:
Type in all cases: biochemical
Settings in all cases: WT-Trp = 100
[1] = target: T1, Atlantic cod (Gadus morhua) trypsin I, recombinant wildtype, EZA-001, SEQ ID NO: 1 (Gadus morhua, UniProt P16049); test: Activity assay to determine kinetic constants, EZA-001
T1 construct: made in house; host or cells: E. coli BL21 (DE3)
T1 sequence (P16049 20-241): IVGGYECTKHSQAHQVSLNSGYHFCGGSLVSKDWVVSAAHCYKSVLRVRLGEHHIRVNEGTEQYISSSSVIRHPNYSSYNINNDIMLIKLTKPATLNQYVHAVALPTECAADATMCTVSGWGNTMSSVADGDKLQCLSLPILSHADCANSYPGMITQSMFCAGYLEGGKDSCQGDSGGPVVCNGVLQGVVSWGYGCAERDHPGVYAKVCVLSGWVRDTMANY
Procedure: (§1) Polypeptides corresponding to the wildtype amino acid sequence of trypsin I from Atlantic cod and thirty-eight mutated versions thereof were produced using the methods described in Example A.
(§2) Activation of recombinant enzymes (approximately 0.01 mg/ml) was achieved by adding wild type trypsin (0.2 U/ml) at room temperature and incubate for 24 hours. The mixture was made in 20 mM Tris-HCl, 1 mM CaCl2, 50% glycerol, pH 8.0 to a final volume of 200 μl.
(§3) The substrate (Gly-Pro-Arg) was used at concentrations 0.005-0.15 mM in assay buffer containing 1% DMSO. 245 μL of substrate solutions were pipetted into a 96-well plate. The reaction was started by adding 5 μL of the sample mixture (above) and monitored at 410 nm in a SpectraMax plate reader. Kinetic measurement was performed every minute of a continuous 15-min run.

[2] = test system: Atlantic cod (Gadus morhua) trypsin I variant EZA-004, K154L in SEQ ID NO: 1 (K152L in SEQ ID NO: 2); test: Activity assay to determine kinetic constants, EZA-004
Procedure: as §1, §2, §3

[3] = test system: Atlantic cod (Gadus morhua) trypsin I variant EZA-009, L185G, P225Y in SEQ ID NO: 1 (L184G, P221Y in SEQ ID NO: 2); test: Activity assay to determine kinetic constants, EZA-009
Procedure: as §1, §2, §3

[4] = target: T2, Atlantic cod (Gadus morhua) trypsin I, wildtype, purified from Atlantic cod (WT-Trp), SEQ ID NO: 1 (Gadus morhua, UniProt P16049); test: Activity assay to determine kinetic constants, WT-Trp (purified)
T2 construct: from tissue
T2 sequence (P16049 20-241): T1 sequence (P16049 20-241)
Procedure: The following polypeptides were obtained or produced: • (a) Wildtype trypsin I purified from Atlantic cod (“WT-Tryp” or “wildtype”); • (b) Recombinantly expressed wildtype trypsin I of Atlantic cod (SEQ ID NO:1, “R-Tryp”); and • (c) Thirty-eight different mutated versions of trypsin I of Atlantic cod (i.e. mutated sequences of SEQ ID NO:1).
as §3

[5] = target: T3, Atlantic cod (Gadus morhua) trypsin I variant EZA-003, K154T in SEQ ID NO: 1 (K152T in SEQ ID NO: 2) (Gadus morhua, UniProt P16049, K152T); test: Activity assay to determine kinetic constants, EZA-003
T3 construct: made in house; host or cells: E. coli BL21 (DE3)
T3 sequence (P16049 20-241 K152T): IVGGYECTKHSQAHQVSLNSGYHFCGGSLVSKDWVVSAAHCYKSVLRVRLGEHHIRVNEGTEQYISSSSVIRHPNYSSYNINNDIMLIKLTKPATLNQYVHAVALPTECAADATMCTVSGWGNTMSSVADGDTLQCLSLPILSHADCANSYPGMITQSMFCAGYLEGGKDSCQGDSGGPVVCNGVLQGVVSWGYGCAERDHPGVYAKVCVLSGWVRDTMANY
Procedure: as §1, §2, §3

[6] = test system: Atlantic cod (Gadus morhua) trypsin I variant EZA-002, N244S, Y245N, S87K in SEQ ID NO: 1 (N240S, Y241N, S88K in SEQ ID NO: 2); test: Activity assay to determine kinetic constants, EZA-002
Procedure: as §1, §2, §3

[7] = test system: Atlantic cod (Gadus morhua) trypsin I variant EZA-005, K154V in SEQ ID NO: 1 (K152V in SEQ ID NO: 2); test: Activity assay to determine kinetic constants, EZA-005
Procedure: as §1, §2, §3

[8] = test system: Atlantic cod (Gadus morhua) trypsin I variant EZA-007, N98T in SEQ ID NO: 1 (N99T in SEQ ID NO: 2); test: Activity assay to determine kinetic constants, EZA-007
Procedure: as §1, §2, §3

[9] = target: T4, Atlantic cod (Gadus morhua) trypsin I variant EZA-006, K154E in SEQ ID NO: 1 (K152E in SEQ ID NO: 2) (Gadus morhua, UniProt P16049, K152E); test: Activity assay to determine kinetic constants, EZA-006
T4 construct: made in house; host or cells: E. coli BL21 (DE3)
T4 sequence (P16049 20-241 K152E): as the sequence (P16049 20-241 K152T) above, with T133E counted along it
Procedure: as §1, §2, §3

[10] = test system: Atlantic cod (Gadus morhua) trypsin I variant EZA-008, I99L in SEQ ID NO: 1 (I100L in SEQ ID NO: 2); test: Activity assay to determine kinetic constants, EZA-008
Procedure: as §1, §2, §3

For Gly-Pro-Arg, which “Vmax, Relative to WT-Trp” value [1] is on record?
The value was 99.

And the “Vmax, Relative to WT-Trp” value [2]?
The value was 82.

What about the “Vmax, Relative to WT-Trp” value [3] of the same substance?
Its value is 98.

And the “Vmax (Kcat), Relative to WT-Trp” value [4]?
The value was 100.

What about the “Vmax, Relative to WT-Trp” value [5] of the same substance?
Its value is 96.

And the “Vmax, Relative to WT-Trp” value [6]?
Its value is 99.

What about the “Vmax, Relative to WT-Trp” value [7] of the same substance?
The value was 96.

And the “Vmax, Relative to WT-Trp” value [8]?
Its value is 99.

And the “Vmax, Relative to WT-Trp” value [9]?
The value was 98.

And the “Vmax, Relative to WT-Trp” value [10]?
Its value is 95.
